Values of other authors in patent publication US9381163B2, “Floating capsules encapsulating particles loaded with one or more drugs” (NANYANG TECHNOLOGICAL UNIVERSITY, priority 2012, dated 2016).

- log P: 1.6
Substance: metoprolol tartrate salt
